Results published in patent US20230174538A1, “Tricyclic heterocycles” (Merck Patent GmbH, priority 2020, published 2023).

tested on: YAP-TEAD interaction; experiment: SK-HEP-1 reporter assay (8xTEAD responsive elements driving NanoLuc luciferase); type: cell-based; details: Homo sapiens, SK-HEP1, SK-HEP-1 reporter assay
Method: To identify inhibitors of YAP-TEAD interaction, 8×TEAD responsive elements driving the NanoLuc® luciferase gene were stably integrated into SK-HEP-1 cells (ECACC #: 91091816).
For the assay, cells were treated in duplicates with the test compounds in a 10-point dose, with the top concentration starting at 30 μM (final concentration in assay). After a 24 hour incubation at 37° C., 95% rH, and 5% CO2, a luciferase substrate/lysis reagent mix (NanoGlo™, Promega) was added to the cells, allowing the quantification of cellular luciferase activity.
Cell Media: The cells were cultured in the following media: MEM, +10% FBS, +1× GlutaMAX, +1 mM Sodium-Pyruvate, +100 μM Non-essential amino acids, +0.1 mg/ml Hygromycin. The media used for the assay was: MEM (w/o Phenol Red), +10% FBS, +1× GlutaMAX, +1 mM Sodium-Pyruvate, +100 μM Non-essential amino acids, +0.5% Pen/Strep
Reagents: The reagents used are listed below:
Cell culture: The cells were examined using an inverted microscope to check for health and cell density. To dissociate adherent cells, the monolayer of cells was washed once with pre-warmed PBS. After removing the PBS, 3 ml pre-warmed Accutase® was added to a F75 flask, dispersed evenly and the flask was allowed to sit in incubator for ˜4-5 minutes.
When a single cell suspension was obtained, 7 ml of prewarmed growth media was added and resuspended with the cells. The cell suspension was transferred to a sterile 15 ml conical centrifuge tube, and spun for 5 min at 300×g, RT. The supernatant was discarded and the pellet was resuspended in 10 ml of pre-warmed growth media.
The total cell count was determined, and 20 μl of the desired cell number was added to each well of a 384 well plate using a Multidrop Combi. The plates were then incubated for 24 hours at 37° C., 95% rH, and 5% CO2.
Compound treatment: 24 hours after seeding, the cells were treated with compounds.
A 1:333 dilution of compounds, diluted in DMSO, was made to get a final concentration of 0.3% DMSO per well. To transfer the compounds to the assay plate, 120 nl was shot from Labcyte low dead volume plates to the cell plates containing 20 μl media/well with the ECHO 555 liquid handling system.
After treatment, the cells were fed with 20 μl fresh pre-warmed assay media using a Multidrop combi.
The assay plates were then incubated for another 24 h at 37° C., 95% rH, and 5% CO2.
Luciferase readout: 24 h after treatment, the plates were taken out of the incubator and were allowed to equilibrate to RT. 30 μl of NanoGlo® reagent was added to the plates in the dark. Plates were shaken for 20 min on a Teleshake (˜1500 rpm) in the dark. The luminescence was then measured using an EnVision microplate reader. The IC50 values were generated using Genedata Screener®.

| IC50 [nM] | Structure (SMILES) |
| --- | --- |
| 100 to 10000 | CC(C)CC(NC(=O)c1ccc2c(c1)c1cn(C)nc1n2-c1ccc(C(F)(F)F)cc1)c1nc[nH]n1 (centres unmarked) [Example B24, 2-methyl-N-[3-methyl-1-(1H-1,2,4-triazol-3-yl)butyl]-8-[4-(trifluoromethyl)phenyl]-2H,8H-pyrazolo[3,4-b]indole-5-carboxamide] |
| 100 to 10000 | Cn1cc2c3cc(C(=O)NC4CCc5cn[nH]c5C4)ccc3n(-c3ccc(C(F)(F)F)cc3)c2n1 (centres unmarked) [Example B25, 2-methyl-N-(4,5,6,7-tetrahydro-1H-indazol-6-yl)-8-[4-(trifluoromethyl)phenyl]-2H,8H-pyrazolo[3,4-b]indole-5-carboxamide] |
| 10 to 100 | Cn1cc2c3cc(C(=O)N(CCO)Cc4ccnn4C)ccc3n(-c3ccc(C(F)(F)F)cc3)c2n1 [Example B27, N-(2-hydroxyethyl)-2-methyl-N-[(1-methyl-1H-pyrazol-5-yl)methyl]-8-[4-(trifluoromethyl)phenyl]-2H,8H-pyrazolo[3,4-b]indole-5-carboxamide] |
| 100 to 10000 | Cn1cc2c3cc(C(=O)NCCc4nc(C5CC5)n[nH]4)ccc3n(-c3ccc(C(F)(F)F)cc3)c2n1 [Example B28, N-[2-(3-cyclopropyl-1H-1,2,4-triazol-5-yl)ethyl]-2-methyl-8-[4-(trifluoro-methyl)phenyl]-2H,8H-pyrazolo[3,4-b]indole-5-carboxamide] |
| > 10000 | Cn1cc2c3cc(C(=O)NCc4n[nH]c5c4CCCC5)ccc3n(-c3ccc(C(F)(F)F)cc3)c2n1 [Example B29, 2-methyl-N-[(4,5,6,7-tetrahydro-1H-indazol-3-yl)methyl]-8-[4-(trifluoromethyl)phenyl]-2H,8H-pyrazolo[3,4-b]indole-5-carboxamide] |
| > 10000 | Cn1cc2c3cc(C(=O)N4CC(c5ocnc5CO)C4)ccc3n(-c3ccc(C(F)(F)F)cc3)c2n1 [Example B30, [5-(1-{2-methyl-8-[4-(trifluoro-methyl)phenyl]-2H,8H-pyrazolo[3,4-b]indole-5-carbonyl}azetidin-3-yl)-1,3-oxazol-4-yl]methanol] |
| 10 to 100 | Cn1cc2c3cc(C(=O)NC(c4ncon4)C4CC4)ccc3n(-c3ccc(C(F)(F)F)cc3)c2n1 (centres unmarked) [Example B31, N-[cyclopropyl(1,2,4-oxadiazol-3-yl)methyl]-2-methyl-8-[4-(trifluoromethyl)phenyl]-2H,8H-pyrazolo[3,4-b]indole-5-carboxamide] |
| 100 to 10000 | CC1CN(C(=O)c2ccc3c(c2)c2cn(C)nc2n3-c2ccc(C(F)(F)F)cc2)CC(CCO)O1 (centres unmarked) [Example B33, 2-(6-methyl-4-{2-methyl-8-[4-(trifluoromethyl)phenyl]-2H,8H-pyrazolo[3,4-b]indole-5-carbonyl}morpholin-2-yl)ethan-1-ol] |
| 10 to 100 | COCC(NC(=O)c1ccc2c(c1)c1cn(C)nc1n2-c1ccc(C(F)(F)F)cc1)c1ccc(C)o1 (centres unmarked) [Example B34, N-[2-methoxy-1-(5-methylfuran-2-yl)ethyl]-2-methyl-8-[4-(trifluoromethyl)phenyl]-2H,8H-pyrazolo[3,4-b]indole-5-carboxamide] |
| > 10000 | Cn1cc2c3cc(C(=O)N4CC(F)(F)CC4(C)CO)ccc3n(-c3ccc(C(F)(F)F)cc3)c2n1 (centres unmarked) [Example B35, (4,4-difluoro-2-methyl-1-{2-methyl-8-[4-(trifluoromethyl)phenyl]-2H,8H-pyrazolo[3,4-b]indole-5-carbonyl}pyrrolidin-2-yl)methanol] |
| 100 to 10000 | Cn1cc2c3cc(C(=O)NC4CCCc5c4cnn5C)ccc3n(-c3ccc(C(F)(F)F)cc3)c2n1 (centres unmarked) [Example B37, 2-methyl-N-(1-methyl-4,5,6,7-tetrahydro-1H-indazol-4-yl)-8-[4-(trifluoromethyl)phenyl]-2H,8H-pyrazolo[3,4-b]indole-5-carboxamide] |
| > 10000 | Cn1cc2c3cc(C(=O)NCCc4cc(O)n(C)n4)ccc3n(-c3ccc(C(F)(F)F)cc3)c2n1 [Example B38, N-[2-(5-hydroxy-1-methyl-1H-pyrazol-3-yl)ethyl]-2-methyl-8-[4-(trifluoromethyl)phenyl]-2H,8H-pyrazolo[3,4-b]indole-5-carboxamide] |
| 10 to 100 | CC(NC(=O)c1ccc2c(c1)c1cn(C)nc1n2-c1ccc(C(F)(F)F)cc1)c1cc[nH]n1 (centres unmarked) [Example B39, 2-methyl-N-[1-(lH-pyrazol-5-yl)ethyl]-8-[4-(trifluoromethyl)phenyl]-2H,8H-pyrazolo[3,4-b]indole-5-carboxamide] |
| > 10000 | Cn1cc2c3cc(C(=O)N4CCn5nccc5C4CO)ccc3n(-c3ccc(C(F)(F)F)cc3)c2n1 (centres unmarked) [Example B40] |
| 100 to 10000 | Cn1cc2c3cc(C(=O)NCC4(N5CCOCC5)CC4)ccc3n(-c3ccc(C(F)(F)F)cc3)c2n1 [Example B42, 2-methyl-N-{[1-(morpholin-4-yl)cyclopropyl]methyl}-8-[4-(trifluoromethyl)phenyl]-2H,8H-pyrazolo[3,4-b]indole-5-carboxamide] |
| 100 to 10000 | Cn1cc2c3cc(C(=O)NC4CCCc5[nH]ccc54)ccc3n(-c3ccc(C(F)(F)F)cc3)c2n1 (centres unmarked) [Example B44, 2-methyl-N-(4,5,6,7-tetrahydro-1H-indol-4-yl)-8-[4-(trifluoromethyl)phenyl]-2H,8H-pyrazolo[3,4-b]indole-5-carboxamide] |
| 100 to 10000 | Cc1[nH]cnc1CNC(=O)c1ccc2c(c1)c1cn(C)nc1n2-c1ccc(C(F)(F)F)cc1 [Example B46, 2-methyl-N-[(5-methyl-1H-imidazol-4-yl)methyl]-8-[4-(trifluoromethyl)phenyl]-2H,8H-pyrazolo[3,4-b]indole-5-carboxamide] |
| 100 to 10000 | Cn1cc2c3cc(C(=O)N4CC(O)(Cc5ccn[nH]5)C4)ccc3n(-c3ccc(C(F)(F)F)cc3)c2n1 [Example B47, 1-{2-methyl-8-[4-(trifluoromethyl)-phenyl]-2H,8H-pyrazolo[3,4-b]indole-5-carbonyl}-3-[(1H-pyrazol-5-yl)methyl]azetidin-3-ol] |
| 100 to 10000 | Cn1cc2c3cc(C(=O)N4CCCC4C4CCCO4)ccc3n(-c3ccc(C(F)(F)F)cc3)c2n1 (centres unmarked) [Example B48, 1-{2-methyl-8-[4-(trifluoromethyl)phenyl]-2H,8H-pyrazolo[3,4-b]indole-5-carbonyl}-2-(oxolan-2-yl)pyrrolidine] |
| 10 to 100 | COCc1ocnc1CNC(=O)c1ccc2c(c1)c1cn(C)nc1n2-c1ccc(C(F)(F)F)cc1 [Example B49, N-{[5-(methoxymethyl)-1,3-oxazol-4-yl]methyl}-2-methyl-8-[4-(trifluoromethyl)phenyl]-2H,8H-pyrazolo[3,4-b]indole-5-carboxamide] |
| 100 to 10000 | CN(Cc1c[nH]cn1)C(=O)c1ccc2c(c1)c1cn(C)nc1n2-c1ccc(C(F)(F)F)cc1 [Example B50, N-[(1H-imidazol-4-yl)methyl]-N,2-dimethyl-8-[4-(trifluoromethyl)phenyl]-2H,8H-pyrazolo[3,4-b]indole-5-carboxamide] |
| 100 to 10000 | COCC1CCN(C(=O)c2ccc3c(c2)c2cn(C)nc2n3-c2ccc(C(F)(F)F)cc2)C1 (centres unmarked) [Example B51, 3-(methoxymethyl)-1-{2-methyl-8-[4-(trifluoromethyl)phenyl]-2H,8H-pyrazolo[3,4-b]indole-5-carbonyl}pyrrolidine] |
| > 10000 | Cn1cc2c3cc(C(=O)N4CCCC4c4ncc[nH]4)ccc3n(-c3ccc(C(F)(F)F)cc3)c2n1 (centres unmarked) [Example B52, 2-(1-{2-methyl-8-[4-(trifluoromethyl)phenyl]-2H,8H-pyrazolo[3,4-b]indole-5-carbonyl}pyrrolidin-2-yl)-1H-imidazole] |
| > 10000 | Cn1cc2c3cc(C(=O)N4CCCC4Cn4cncn4)ccc3n(-c3ccc(C(F)(F)F)cc3)c2n1 (centres unmarked) [Example B54, 1-[(1-{2-methyl-8-[4-(trifluoromethyl)phenyl]-2H,8H-pyrazolo[3,4-b]indole-5-carbonyl}pyrrolidin-2-yl)methyl]-1H-1,2,4-triazole] |
| 10 to 100 | Cn1cc2c3cc(C(=O)NC(c4cccnc4)C4CC4)ccc3n(-c3ccc(C(F)(F)F)cc3)c2n1 (centres unmarked) [Example B55, N-[cyclopropyl(pyridin-3-yl)methyl]-2-methyl-8-[4-(trifluoromethyl)phenyl]-2H,8H-pyrazolo[3,4-b]indole-5-carboxamide] |
| > 10000 | Cn1cc2c3cc(C(=O)N4CC(O)C5(CCOCC5)C4)ccc3n(-c3ccc(C(F)(F)F)cc3)c2n1 (centres unmarked) [Example B56, 2-(2-methyl-8-[4-(trifluoromethyl)phenyl]-2H,8H-pyrazolo[3,4-b]indole-5-carbonyl}-8-oxa-2-azaspiro[4.5]decan-4-ol] |
